Experimental data: patent publication US8865737B2, “Antitumor agent for undifferentiated gastric cancer” (Eisai R&D Management Co., Ltd., priority 2006, dated 2014)

How the values were obtained:
KATO-III [1] = experiment: Cell proliferation, Cell Counting Kit-8; type: cell-based; conditions: Homo sapiens, 72 h, 1% FBS, three days, read-out: inhibition of cell proliferation IC50
Method: (§1) Human undifferentiated gastric cancer cell lines (KATO-III (purchased from ATCC)), SNU-16 (purchased from ATCC) and HSC-39 (purchased from Immuno-Biological Laboratories)) were suspended in RPMI1640 media (purchased from Sigma) containing 10% FBS except that KATO-III was suspended in an RMPI1640 medium containing 1% FBS. The cell suspensions (KATO-III: 6×10^4 cells/mL; SNU-16 and HSC-39: 2×10^4 cells/mL) were placed into a 96-well cell culture plate (purchased from NUNC) at 0.1 mL/well and cultured in a 5% CO2 incubator (37° C.) overnight. Following cultivation, 0.1 mL of the test substance 4-(3-chloro-4-(cyclopropylaminocarbonyl)aminophenoxy)-7-methoxy-6-quinolinecarboxamide (methanesulfonate) diluted in an RPMI1640 medium containing 1% or 10% FBS was added to each well and further cultured in a 5% CO2 incubator (37° C.) for three days. Following cultivation, 20 μL of Cell Counting Kit-8 (purchased from DOJINDO) was added to each well and allowed to develop color in a 5% CO2 incubator (37° C.) to determine (measure) the absorbance of each well by using a plate reader MTP-500 (Corona Electric) at a measurement wavelength of 450 nm and a reference wavelength of 660 nm.

HSC-39 [2] = experiment: Cell proliferation, Cell Counting Kit-8; type: cell-based; conditions: Homo sapiens, 72 h; HSC-39, 10% FBS, three days; read-out: inhibition of cell proliferation IC50
Method: as §1

SNU-16 [3] = experiment: Cell proliferation, Cell Counting Kit-8; type: cell-based; conditions: Homo sapiens, 72 h; SNU-16, 10% FBS, three days; read-out: inhibition of cell proliferation IC50
Method: as §1

HSC-39 [4] = experiment: Apoptosis of human undifferentiated gastric cancer cell line (PARP / caspase-3 fragmentation, western blotting); type: cell-based; conditions: 1 μM, HSC-39, one or three days (FIG. 2)
Method: Human undifferentiated gastric cancer cell line HSC-39 (purchased from Immuno-Biological Laboratories) was suspended in an RPMI1640 medium (purchased from Sigma) containing 10% FBS. Five mL of the cell suspension (4×10^5 cells/mL) was placed into a […] (purchased from FALCON). To this, 5 mL of the test substance 4-(3-chloro-4-(cyclopropylaminocarbonyl)aminophenoxy)-7-methoxy-6-quinolinecarboxamide (methanesulfonate) diluted in an RPMI1640 medium containing 10% FBS was added and cultured in a 5% CO2 incubator (37° C.) for one or three days. The culture solution was collected and each flask was washed with 5 mL PBS. The mixture of the collected culture solution and the washing solution was centrifuged at 1,000 rpm, at 4° C. for 5 minutes. For precipitation, 100 μL of a lysis buffer (50 mM Hepes (pH 7.4), 150 mM NaCl, 10% (v/v) glycerol, 1% Triton X-100, 1.5 mM MgCl2, 1 mM EDTA (pH 8.0), 100 mM NaF, 1 mM PMSF, 10 μg/mL Aprotinin, 50 μg/mL Leupeptin, 1 μg/mL Pepstatin A, 1 mM Na3VO4) was added to solubilize the cells. This solution was collected and centrifugated at 15,000 rpm, at 4° C. for 15 minutes. An SDS buffer was added to the supernatant to prepare a 25 μg/15 μL solution and the resultant was treated at 94° C. for 5 minutes to solubilize the protein, which was prepared as a cell sample solution. […]

[5] = biological target: T1, FGFR2 recombinant protein (Homo sapiens, UniProt P21802); experiment: FGFR2 kinase inhibitory activity (cell free kinase assay, Upstate); type: biochemical; conditions: poly(Glu, Tyr)4:1 substrate, [γ-33P]-ATP, 40 minutes at room temperature
T1 construct: purchased Upstate (UK)
Method: Specifically, the FGFR2 kinase inhibitory activity was measured as follows.
MgATP was added to 25 μL of solution containing 5-10 mU of FGFR2 recombinant protein, 8 mM MOPS (pH 7.0), 0.2 mM EDTA, 2.5 mM MnCl2, 0.1 mg/ml poly (Glu, Tyr)4:1, 10 mM Mg Acetate, 500 cpm/mol [γ-^33P]-ATP and a test substance to initiate reaction.
Following 40 minutes of reaction at room temperature, 5 μL of 3% phosphoric acid was added to terminate the reaction. 10 μL of the reaction solution was spotted on Filtermat A, which was washed with 75 mM phosphoric acid for five times and once with ethanol and then dried. The radioactivity of the spot was determined (measured).
In this regard, a value obtained when substrate Poly(Glu, Tyr)4:1 was contained but not the FGFR2 recombinant protein was assumed 0% value while a value obtained when the FGFR2 recombinant protein and substrate Poly(Glu, Tyr)4:1 were contained but not the test substance was assumed 100% value.
The kinase activity in the presence of the test substance at each concentration was calculated as percentage of the value obtained by subtracting the 0% value from each radioactivity value to the value obtained by subtracting the 0% value from the 100% value.

FGFR2 [6] = experiment: FGFR2 phosphorylation in human undifferentiated gastric cancer cell lines (immunoprecipitation, western blotting); type: cell-based; conditions: 1 μM, one hour; KATO-III, SNU-16 and HSC-39 cells (FIG. 1)
Method: Human undifferentiated gastric cancer cell lines (KATO-III (purchased from ATCC)), SNU-16 (purchased from ATCC) and HSC-39 (purchased from Immuno-Biological Laboratories)) were suspended in RPMI1640 media (purchased from Sigma) containing 10% FBS (fetal bovine serum). KATO-III, SNU-16 and HSC-39 are cells showing FGFR2 gene amplification (Laboratory Investigation, 78, 1143-1153, 1998), and are also known as scirrhous gastric cancer cell lines. Each 10 mL of the cell suspensions (5×10^5 cells/mL) was placed into a 75 cm^2 cell culture flask (purchased from FALCON) and cultured in a 5% CO2 incubator (37° C.) overnight. In the case of KATO-III, the medium was replaced by an RMPI1640 medium containing 1% FBS. To this, 10 mL of the test substance 4-(3-chloro-4-(cyclopropylaminocarbonyl)aminophenoxy)-7-methoxy-6-quinolinecarboxamide (methanesulfonate) diluted in RPMI1640 containing 1% or 10% FBS was added and cultured in a 5% CO2 incubator (37° C.) for an hour. The culture solution was collected, each flask was washed with 5 mL PBS, and the mixture of the collected culture and the washing solution was centrifuged at 1,000 rpm, at 4° C. for 5 minutes. […]

KATO-III [7] = experiment: Anti-tumor effect, subcutaneous transplanted (xenograft) model; type: in vivo, nude mice; conditions: oral 30 or 100 mg/kg once a day, two-weeks schedule (FIG. 3)
Method: (§2) Human undifferentiated gastric cancer cell lines (KATO-III (purchased from ATCC)), SNU-16 (purchased from ATCC) and HSC-39 (purchased from Immuno-Biological Laboratories) were cultured with RPMI1640 (containing 10% FBS) in a 5% CO2 incubator at 37° C. The cells were collected with trypsin-EDTA according to a conventional method. The cells were suspended in a phosphate buffer to prepare a 5×10^7 cells/mL suspension. Each 0.1 mL of the resulting cell suspensions was subcutaneously transplanted into the side of body of nude mice (purchased from Charles River). Following transplantation, the test substance 4-(3-chloro-4-(cyclopropylaminocarbonyl)aminophenoxy)-7-methoxy-6-quinolinecarboxamide (methanesulfonate) dissolved in distilled water for injection (purchased from Otsuka Pharmaceutical) was orally administered at 1, 3, 10, 30 or 100 mg/kg once a day on a four-weeks schedule (except for KATO-III, 30 or 100 mg/kg, once a day, two-weeks schedule) once the tumor volume became (reached) about 100-200 mm^3. The major and minor axes of tumors were measured with Digimatic caliper (Mitsutoyo), and tumor volumes were calculated according to the following formulae. Tumor Volume (TV)=Major axis of tumor (mm)×(Minor axis of tumor)^2 (mm^2)/2

HSC-39 [8] = experiment: as above; type: in vivo, nude mice; conditions: HSC-39 xenograft, oral 1, 3, 10, 30 or 100 mg/kg once a day, four-weeks schedule (FIG. 3)
Method: as §2

SNU-16 [9] = experiment: as above; type: in vivo, nude mice; conditions: SNU-16 xenograft, oral 1, 3, 10, 30 or 100 mg/kg once a day, four-weeks schedule (FIG. 3)
Method: as §2

FGFR2 [10] = experiment: FGFR2 phosphorylation in tumor tissues of subcutaneous transplanted (xenograft) models; type: in vivo, nude mice; conditions: SNU-16 and HSC-39 xenografts, oral 10, 30 or 100 mg/kg, tumors removed two hours after administration (FIG. 4)
Method: Human undifferentiated gastric cancer cell lines (SNU-16 (purchased from ATCC) and HSC-39 (purchased from Immuno-Biological Laboratories) were cultured with RPMI1640 (containing 10% FBS) in a 5% CO2 incubator (37° C.) and cells were collected with trypsin-EDTA according to a conventional method. The cells were suspended in a phosphate buffer to prepare a 5×10^7 cells/mL suspension. Each 0.1 mL of the resulting cell suspensions was subcutaneously transplanted into the side of body of nude mice (purchased from Charles River).
Following transplantation, the test substance 4-(3-chloro-4-(cyclopropylaminocarbonyl)aminophenoxy)-7-methoxy-6-quinolinecarboxamide (methanesulfonate) dissolved in distilled water for injection (purchased from Otsuka Pharmaceutical) was orally administered at 10, 30 or 100 mg/kg once the tumor volume became (reached) about 400-800 mm^3. Tumors were removed two hours after the administration, to which a lysis buffer (50 mM Hepes (pH 7.4), 150 mM NaCl, 10% (v/v) glycerol, 1% TritonX-100, 1.5 mM MgCl2, 1 mM EDTA (pH 8.0), 100 mM NaF, 1 mM PMSF, 10 μg/mL Aprotinin, 50 μg/mL Leupeptin, 1 μg/mL Pepstatin A, 1 mM Na3VO4) and 25 mM β-glycerophosphate and phosphatase inhibitor cocktail II (SIGMA)) was added for homogenization. The resultant was centrifugated at 15,000 rpm, at 4° C. for 15 minutes. 1000 μg/500 μL of The supernatant was prepared as a tumor extract. […]

T1 sequence (P21802 22-821): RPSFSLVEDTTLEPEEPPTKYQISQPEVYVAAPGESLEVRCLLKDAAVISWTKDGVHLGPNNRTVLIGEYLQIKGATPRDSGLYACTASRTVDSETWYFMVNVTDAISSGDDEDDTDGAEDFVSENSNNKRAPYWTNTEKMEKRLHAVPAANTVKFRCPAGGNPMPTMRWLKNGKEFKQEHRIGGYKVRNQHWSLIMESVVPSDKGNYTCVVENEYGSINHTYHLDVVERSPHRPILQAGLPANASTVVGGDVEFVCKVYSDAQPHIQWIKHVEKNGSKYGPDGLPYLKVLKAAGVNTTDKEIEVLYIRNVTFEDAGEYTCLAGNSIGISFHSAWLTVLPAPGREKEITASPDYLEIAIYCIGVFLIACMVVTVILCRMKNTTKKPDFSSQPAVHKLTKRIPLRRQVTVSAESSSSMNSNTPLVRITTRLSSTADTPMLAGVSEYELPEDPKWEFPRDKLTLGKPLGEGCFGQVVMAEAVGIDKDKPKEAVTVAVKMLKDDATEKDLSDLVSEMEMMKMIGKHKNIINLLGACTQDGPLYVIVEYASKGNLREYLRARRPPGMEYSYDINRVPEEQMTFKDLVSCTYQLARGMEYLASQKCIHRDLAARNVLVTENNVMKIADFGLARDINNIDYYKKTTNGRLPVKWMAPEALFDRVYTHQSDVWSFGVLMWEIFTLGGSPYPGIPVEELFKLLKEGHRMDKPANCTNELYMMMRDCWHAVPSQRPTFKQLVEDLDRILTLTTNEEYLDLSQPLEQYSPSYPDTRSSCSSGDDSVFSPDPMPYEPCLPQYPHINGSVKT

COc1cc2nccc(Oc3ccc(NC(=O)NC4CC4)c(Cl)c3)c2cc1C(N)=O [4-(3-chloro-4-(cyclopropylaminocarbonyl)aminophenoxy)-7-methoxy-6-quinolinecarboxamide]
IC50 (KATO-III [1]): 141 nM | IC50 (HSC-39 [2]): 157 nM | IC50 (SNU-16 [3]): 251 nM | cleaved-PARP (HSC-39 [4]): clearly detected | cleaved-caspase-3 (HSC-39 [4]): clearly detected | IC50 [5]: < 10 nM | phosphorylation of FGFR2 (FGFR2 [6]): almost completely inhibited | anti-tumor effect (tumor volume) (KATO-III [7]): dose-dependent anti-tumor effect | anti-tumor effect (tumor volume) (HSC-39 [8]): dose-dependent anti-tumor effect | anti-tumor effect (tumor volume) (SNU-16 [9]): dose-dependent anti-tumor effect | phosphorylation of FGFR2 in tumor (FGFR2 [10]): inhibit phosphorylation of FGFR2
